# Data as given in paper PMC9126795 (eBioMedicine, 2022).
# Like-named read-outs stand apart in the source and are kept apart here.
# System: patients with HCV and HBV liver cirrhosis
# Assay type: in vivo, human
# [1] = Phase 1 140 mg/m^2/4h (n = 3), Grade 1-2
# [2] = Phase 1 140 mg/m^2/4h (n = 3), Grade 3
# [3] = Phase 1 280 mg/m^2/4h (n = 6), Grade 1-2
# [4] = Phase 1 280 mg/m^2/4h (n = 6), Grade 3
# [5] = Phase 1 380 mg/m^2/4h (n = 6), Grade 1-2
# [6] = Phase 1 380 mg/m^2/4h (n = 6), Grade 3
# [7] = Phase 2a 280 mg/m^2/4h, Phase 1/ 2a (n = 3), Grade 1-2
# [8] = Phase 2a 280 mg/m^2/4h, Phase 1/ 2a (n = 3), Grade 3
# [9] = Phase 2a 280 mg/m^2/4h, Phase 2a only (n = 12), Grade 1-2
# [10] = Phase 2a 280 mg/m^2/4h, Phase 2a only (n = 12), Grade 3
substance,measurement,setting,value
PRI-724,Liver dysfunction at the recommended dose,"Level 2, 280 mg/m^2/4 h",minor and transient
same,AE: Anaemia,[1],0
same,AE: Ascites,[1],0
same,AE: Decreased appetite,[1],0
same,AE: Diarrhea,[1],0
same,AE: Dyspepsia,[1],0
same,AE: Erythema,[1],0
same,AE: Headache,[1],0
same,AE: Hepatic function abnormal,[1],1 (33%)
same,AE: Hypertension,[1],0
same,AE: Hyperuricaemia,[1],0
same,AE: Insomnia,[1],0
same,AE: Muscle spasms,[1],0
same,AE: Nasopharyngitis,[1],1 (33%)
same,AE: Nausea,[1],0
same,AE: Pruritus,[1],0
same,AE: Puncture site pain,[1],0
same,AE: Pyrexia,[1],0
same,AE: Spontaneous bacterial peritonitis,[1],0
same,AE: Viral infection,[1],0
same,AE: Vomiting,[1],0
same,Laboratory abnormality: Alanine aminotransferase increased,[1],0
same,Laboratory abnormality: Aspartate aminotransferase increased,[1],0
same,Laboratory abnormality: Blood creatine phosphokinase increased,[1],0
same,Laboratory abnormality: Blood creatinine increased,[1],0
same,Laboratory abnormality: C-reactive protein increased,[1],0
same,SAE: Anaemia,[1],0
same,SAE: Hepatic function abnormal,[1],0
same,SAE: Spontaneous bacterial peritonitis,[1],0
same,SAE: Viral infection,[1],0
same,AE: Anaemia,[2],0
same,AE: Ascites,[2],0
same,AE: Decreased appetite,[2],0
same,AE: Diarrhea,[2],0
same,AE: Dyspepsia,[2],0
same,AE: Erythema,[2],0
same,AE: Headache,[2],0
same,AE: Hepatic function abnormal,[2],0
same,AE: Hypertension,[2],0
same,AE: Hyperuricaemia,[2],0
same,AE: Insomnia,[2],0
same,AE: Muscle spasms,[2],0
same,AE: Nasopharyngitis,[2],0
same,AE: Nausea,[2],0
same,AE: Pruritus,[2],0
same,AE: Puncture site pain,[2],0
same,AE: Pyrexia,[2],0
same,AE: Spontaneous bacterial peritonitis,[2],0
same,AE: Viral infection,[2],0
same,AE: Vomiting,[2],0
same,Laboratory abnormality: Alanine aminotransferase increased,[2],0
same,Laboratory abnormality: Aspartate aminotransferase increased,[2],0
same,Laboratory abnormality: Blood creatine phosphokinase increased,[2],0
same,Laboratory abnormality: Blood creatinine increased,[2],0
same,Laboratory abnormality: C-reactive protein increased,[2],0
same,SAE: Anaemia,[2],0
same,SAE: Hepatic function abnormal,[2],0
same,SAE: Spontaneous bacterial peritonitis,[2],0
same,SAE: Viral infection,[2],0
same,AE: Anaemia,[3],0
same,AE: Ascites,[3],1 (17%)
same,AE: Decreased appetite,[3],2 (33%)
same,AE: Diarrhea,[3],1 (17%)
same,AE: Dyspepsia,[3],1 (17%)
same,AE: Erythema,[3],0
same,AE: Headache,[3],1 (17%)
same,AE: Hepatic function abnormal,[3],1 (17%)
same,AE: Hypertension,[3],1 (17%)
same,AE: Hyperuricaemia,[3],0
same,AE: Insomnia,[3],1 (17%)
same,AE: Muscle spasms,[3],2 (33%)
same,AE: Nasopharyngitis,[3],1 (17%)
same,AE: Nausea,[3],2 (33%)
same,AE: Pruritus,[3],1 (17%)
same,AE: Puncture site pain,[3],1 (17%)
same,AE: Pyrexia,[3],0
same,AE: Spontaneous bacterial peritonitis,[3],0
same,AE: Viral infection,[3],0
same,AE: Vomiting,[3],2 (33%)
same,Laboratory abnormality: Alanine aminotransferase increased,[3],0
same,Laboratory abnormality: Aspartate aminotransferase increased,[3],0
same,Laboratory abnormality: Blood creatine phosphokinase increased,[3],0
same,Laboratory abnormality: Blood creatinine increased,[3],0
same,Laboratory abnormality: C-reactive protein increased,[3],0
same,SAE: Anaemia,[3],0
same,SAE: Hepatic function abnormal,[3],0
same,SAE: Spontaneous bacterial peritonitis,[3],0
same,SAE: Viral infection,[3],0
same,AE: Anaemia,[4],0
same,AE: Ascites,[4],0
same,AE: Decreased appetite,[4],0
same,AE: Diarrhea,[4],1 (17%)
same,AE: Dyspepsia,[4],0
same,AE: Erythema,[4],0
same,AE: Headache,[4],0
same,AE: Hepatic function abnormal,[4],0
same,AE: Hypertension,[4],0
same,AE: Hyperuricaemia,[4],0
same,AE: Insomnia,[4],0
same,AE: Muscle spasms,[4],0
same,AE: Nasopharyngitis,[4],0
same,AE: Nausea,[4],0
same,AE: Pruritus,[4],0
same,AE: Puncture site pain,[4],0
same,AE: Pyrexia,[4],0
same,AE: Spontaneous bacterial peritonitis,[4],0
same,AE: Viral infection,[4],0
same,AE: Vomiting,[4],0
same,Laboratory abnormality: Alanine aminotransferase increased,[4],1 (17%)
same,Laboratory abnormality: Aspartate aminotransferase increased,[4],1 (17%)
same,Laboratory abnormality: Blood creatine phosphokinase increased,[4],0
same,Laboratory abnormality: Blood creatinine increased,[4],0
same,Laboratory abnormality: C-reactive protein increased,[4],0
same,SAE: Anaemia,[4],0
same,SAE: Hepatic function abnormal,[4],0
same,SAE: Spontaneous bacterial peritonitis,[4],0
same,SAE: Viral infection,[4],0
same,AE: Anaemia,[5],0
same,AE: Ascites,[5],1 (17%)
same,AE: Decreased appetite,[5],1 (17%)
same,AE: Diarrhea,[5],2 (33%)
same,AE: Dyspepsia,[5],0
same,AE: Erythema,[5],0
same,AE: Headache,[5],1 (17%)
same,AE: Hepatic function abnormal,[5],0
same,AE: Hypertension,[5],0
same,AE: Hyperuricaemia,[5],0
same,AE: Insomnia,[5],1 (17%)
same,AE: Muscle spasms,[5],0
same,AE: Nasopharyngitis,[5],0
same,AE: Nausea,[5],2 (33%)
same,AE: Pruritus,[5],0
same,AE: Puncture site pain,[5],0
same,AE: Pyrexia,[5],2 (33%)
same,AE: Spontaneous bacterial peritonitis,[5],0
same,AE: Viral infection,[5],0
same,AE: Vomiting,[5],1 (17%)
same,Laboratory abnormality: Alanine aminotransferase increased,[5],0
same,Laboratory abnormality: Aspartate aminotransferase increased,[5],1 (17%)
same,Laboratory abnormality: Blood creatine phosphokinase increased,[5],1 (17%)
same,Laboratory abnormality: Blood creatinine increased,[5],0
same,Laboratory abnormality: C-reactive protein increased,[5],1 (17%)
same,SAE: Anaemia,[5],0
same,SAE: Hepatic function abnormal,[5],0
same,SAE: Spontaneous bacterial peritonitis,[5],0
same,SAE: Viral infection,[5],0
same,AE: Anaemia,[6],0
same,AE: Ascites,[6],0
same,AE: Decreased appetite,[6],0
same,AE: Diarrhea,[6],0
same,AE: Dyspepsia,[6],0
same,AE: Erythema,[6],0
same,AE: Headache,[6],0
same,AE: Hepatic function abnormal,[6],1 (17%)
same,AE: Hypertension,[6],0
same,AE: Hyperuricaemia,[6],0
same,AE: Insomnia,[6],0
same,AE: Muscle spasms,[6],0
same,AE: Nasopharyngitis,[6],0
same,AE: Nausea,[6],0
same,AE: Pruritus,[6],0
same,AE: Puncture site pain,[6],0
same,AE: Pyrexia,[6],0
same,AE: Spontaneous bacterial peritonitis,[6],0
same,AE: Viral infection,[6],1 (17%)
same,AE: Vomiting,[6],0
same,Laboratory abnormality: Alanine aminotransferase increased,[6],0
same,Laboratory abnormality: Aspartate aminotransferase increased,[6],0
same,Laboratory abnormality: Blood creatine phosphokinase increased,[6],0
same,Laboratory abnormality: Blood creatinine increased,[6],0
same,Laboratory abnormality: C-reactive protein increased,[6],0
same,SAE: Anaemia,[6],0
same,SAE: Hepatic function abnormal,[6],1 (17%)
same,SAE: Spontaneous bacterial peritonitis,[6],0
same,SAE: Viral infection,[6],1 (17%)
same,Serious adverse events (SAEs) observed,"Phase 1/2a, 27 patients",four SAEs among three (one from phase 1 and two from phase 2a) of the 27 patients
same,AE: Anaemia,[7],0
same,AE: Ascites,[7],0
same,AE: Decreased appetite,[7],1 (33%)
same,AE: Diarrhea,[7],1 (33%)
same,AE: Dyspepsia,[7],0
same,AE: Erythema,[7],0
same,AE: Headache,[7],0
same,AE: Hepatic function abnormal,[7],0
same,AE: Hypertension,[7],1 (33%)
same,AE: Hyperuricaemia,[7],0
same,AE: Insomnia,[7],1 (33%)
same,AE: Muscle spasms,[7],0
same,AE: Nasopharyngitis,[7],0
same,AE: Nausea,[7],1 (33%)
same,AE: Pruritus,[7],0
same,AE: Puncture site pain,[7],1 (33%)
same,AE: Pyrexia,[7],0
same,AE: Spontaneous bacterial peritonitis,[7],0
same,AE: Viral infection,[7],0
same,AE: Vomiting,[7],1 (33%)
same,Laboratory abnormality: Alanine aminotransferase increased,[7],0
same,Laboratory abnormality: Aspartate aminotransferase increased,[7],0
same,Laboratory abnormality: Blood creatine phosphokinase increased,[7],0
same,Laboratory abnormality: Blood creatinine increased,[7],0
same,Laboratory abnormality: C-reactive protein increased,[7],0
same,SAE: Anaemia,[7],0
same,SAE: Hepatic function abnormal,[7],0
same,SAE: Spontaneous bacterial peritonitis,[7],0
same,SAE: Viral infection,[7],0
same,AE: Anaemia,[8],0
same,AE: Ascites,[8],0
same,AE: Decreased appetite,[8],0
same,AE: Diarrhea,[8],0
same,AE: Dyspepsia,[8],0
same,AE: Erythema,[8],0
same,AE: Headache,[8],0
same,AE: Hepatic function abnormal,[8],0
same,AE: Hypertension,[8],0
same,AE: Hyperuricaemia,[8],0
same,AE: Insomnia,[8],0
same,AE: Muscle spasms,[8],0
same,AE: Nasopharyngitis,[8],0
same,AE: Nausea,[8],0
same,AE: Pruritus,[8],0
same,AE: Puncture site pain,[8],0
same,AE: Pyrexia,[8],0
same,AE: Spontaneous bacterial peritonitis,[8],0
same,AE: Viral infection,[8],0
same,AE: Vomiting,[8],0
same,Laboratory abnormality: Alanine aminotransferase increased,[8],0
same,Laboratory abnormality: Aspartate aminotransferase increased,[8],0
same,Laboratory abnormality: Blood creatine phosphokinase increased,[8],0
same,Laboratory abnormality: Blood creatinine increased,[8],0
same,Laboratory abnormality: C-reactive protein increased,[8],0
same,SAE: Anaemia,[8],0
same,SAE: Hepatic function abnormal,[8],0
same,SAE: Spontaneous bacterial peritonitis,[8],0
same,SAE: Viral infection,[8],0
same,AE: Anaemia,[9],0
same,AE: Ascites,[9],0
same,AE: Decreased appetite,[9],3 (25%)
same,AE: Diarrhea,[9],2 (17%)
same,AE: Dyspepsia,[9],0
same,AE: Erythema,[9],2 (17%)
same,AE: Headache,[9],1 (8%)
same,AE: Hepatic function abnormal,[9],1 (8%)
same,AE: Hypertension,[9],0
same,AE: Hyperuricaemia,[9],1 (8%)
same,AE: Insomnia,[9],0
same,AE: Muscle spasms,[9],0
same,AE: Nasopharyngitis,[9],1 (8%)
same,AE: Nausea,[9],2 (17%)
same,AE: Pruritus,[9],2 (17%)
same,AE: Puncture site pain,[9],0
same,AE: Pyrexia,[9],0
same,AE: Spontaneous bacterial peritonitis,[9],0
same,AE: Viral infection,[9],0
same,AE: Vomiting,[9],1 (8%)
same,Laboratory abnormality: Alanine aminotransferase increased,[9],2 (17%)
same,Laboratory abnormality: Aspartate aminotransferase increased,[9],3 (25%)
same,Laboratory abnormality: Blood creatine phosphokinase increased,[9],0
same,Laboratory abnormality: Blood creatinine increased,[9],1 (8%)
same,Laboratory abnormality: C-reactive protein increased,[9],0
same,SAE: Anaemia,[9],0
same,SAE: Hepatic function abnormal,[9],0
same,SAE: Spontaneous bacterial peritonitis,[9],0
same,SAE: Viral infection,[9],0
same,AE: Anaemia,[10],2 (17%)
same,AE: Ascites,[10],0
same,AE: Decreased appetite,[10],0
same,AE: Diarrhea,[10],1 (8%)
same,AE: Dyspepsia,[10],0
same,AE: Erythema,[10],0
same,AE: Headache,[10],0
same,AE: Hepatic function abnormal,[10],0
same,AE: Hypertension,[10],1 (8%)
same,AE: Hyperuricaemia,[10],1 (8%)
same,AE: Insomnia,[10],0
same,AE: Muscle spasms,[10],0
same,AE: Nasopharyngitis,[10],0
same,AE: Nausea,[10],0
same,AE: Pruritus,[10],0
same,AE: Puncture site pain,[10],0
same,AE: Pyrexia,[10],0
same,AE: Spontaneous bacterial peritonitis,[10],1 (8%)
same,AE: Viral infection,[10],0
same,AE: Vomiting,[10],0
same,Laboratory abnormality: Alanine aminotransferase increased,[10],1 (8%)
same,Laboratory abnormality: Aspartate aminotransferase increased,[10],0
same,Laboratory abnormality: Blood creatine phosphokinase increased,[10],0
same,Laboratory abnormality: Blood creatinine increased,[10],0
same,Laboratory abnormality: C-reactive protein increased,[10],0
same,SAE: Anaemia,[10],1 (8%)
same,SAE: Hepatic function abnormal,[10],0
same,SAE: Spontaneous bacterial peritonitis,[10],1 (8%)
same,SAE: Viral infection,[10],0
same,"AE liver dysfunction, patients","all patients, 4/27",15%
same,"AE vomiting, patients","all patients, 4/27",15%
same,"AE loss of appetite, patients","all patients, 6/27",22%
same,"AE nausea, patients","all patients, 6/27",22%
same,"AE diarrhoea, patients","all patients, 7/27",26%
same,SAEs related to PRI-724,observed in the 380 mg/m^2/4 h cohort (liver dysfunction: grade 3),One of the four SAEs was possibly related to the PRI-724
